Read-outs that look alike come from different tables or passages of the source.
Key:
[1] = tested on: dogs; details: for Intake Ratio / Preference (%) control composition / Preference (%) test composition / Status (vs. control): dry wt. of kibble, dogs, Hill's Canine Maintenance Adult
From the text: The experiment comprised mixing various amounts of 2,5-dimethyl-4-hydroxy-3(2H)-furanone (0.2% to 1.2%) with a commercial liquid palatant enhancer as a carrier to form a flavored palatant (hereinafter test flavor). The test flavor (2.0%, dry weight basis) was topically applied to a dry, commercial dog food (Hill's Canine Maintenance Adult, a Science Diet for adult dogs commercially available from Hill's Pet Nutrition, Inc., Topeka, Kans.) after sequential application of soy bean oil (1.2%, dry weight basis) and choice white grease (7.9%, dry weight basis) to form a test composition.
Each test composition was compared against a control composition in a palatability test. The control compositions were prepared by topically applying the commercial liquid palatant enhance (2.0% dry weight basis) to the dry, commercial dog food (Hill's Canine Maintenance Adult) after sequential application of soy bean oil (1.2%, dry weight basis) and choice white grease (7.9%, dry weight basis). Palatability was determined by comparing the test composition and the control composition in a standard two-bowl preference test over two days with 20 dogs.

[2] = tested on: cats; test: two-bowl preference test, Example 6 (Feline w/d); type: in vivo, cat; details: dry wt. of kibble
From the text: Finally, a commercial dry palatant enhancer (1.4% dry weight basis) was topically applied to the dry kibbles to complete the test composition.

[3] = Exp. No. 7, second set of experiments, 1 ppm
[4] = Exp. No. 8, second set of experiments, 2 ppm
[5] = Exp. No. 9, second set of experiments, 3 ppm
[6] = Exp. No. 10, second set of experiments, 4 ppm
[7] = Exp. No. 11, second set of experiments, 5 ppm
[8] = Exp. No. 12, second set of experiments, 10 ppm

## CC1=C(O)C(=O)C(C)O1 (stereo not drawn) [2,5-dimethyl-4-hydroxy-3(2H)-furanone]
[1]; Exp. No. 2, 43.5 ppm
  Intake Ratio: 0.5705
  Preference (%) control composition: 27.8%
  Preference (%) test composition: 61.1%
  Status (vs. control): Parity
[1]; Exp. No. 3, 87.1 ppm
  Intake Ratio: 0.7361
  Preference (%) control composition: 10.0%
  Preference (%) test composition: 90.0%
  Status (vs. control): Win
[1]; Exp. No. 4, 130.5 ppm
  Intake Ratio: 0.5673
  Preference (%) control composition: 25.0%
  Preference (%) test composition: 50.0%
  Status (vs. control): Win
[1]; Exp. No. 5, 217.5 ppm
  Intake Ratio: 0.6575
  Preference (%) control composition: 40.0%
  Preference (%) test composition: 60.0%
  Status (vs. control): Win
[1]; Exp. No. 6, 217.5 ppm
  Intake Ratio: 0.8206
  Preference (%) control composition: 5.0%
  Preference (%) test composition: 95.0%
  Status (vs. control): Win
[1]; dog, in vivo
  intolerance of the test palatant following intake: No evidence of any intolerance
[2]; Exp. No. 1, 1 ppm
  Intake Ratio: 0.7653
  Preference (%) control composition: 20.0%
  Preference (%) test composition: 80.0%
  Status (vs. control): Win
[2]; Exp. No. 2, 2 ppm
  Intake Ratio: 0.8280
  Preference (%) control composition: 17.6%
  Preference (%) test composition: 82.6%
  Status (vs. control): Win
[2]; Exp. No. 3, 3 ppm
  Intake Ratio: 0.9457
  Preference (%) control composition: 4.3%
  Preference (%) test composition: 95.7%
  Status (vs. control): Win
[2]; Exp. No. 4, 4 ppm
  Intake Ratio: 0.8426
  Preference (%) control composition: 16.0%
  Preference (%) test composition: 84.0%
  Status (vs. control): Win
[2]; Exp. No. 5, 5 ppm
  Intake Ratio: 0.8957
  Preference (%) control composition: 11.1%
  Preference (%) test composition: 88.9%
  Status (vs. control): Win
[2]; Exp. No. 6, 10 ppm
  Intake Ratio: 0.8596
  Preference (%) control composition: 4.2%
  Preference (%) test composition: 95.8%
  Status (vs. control): Win
[2]; [3]
  Intake Ratio: 0.9077
  Preference (%) control composition: 4.2%
  Preference (%) test composition: 95.8%
  Status (vs. control): Win
[2]; [4]
  Intake Ratio: 0.7613
  Preference (%) control composition: 16.0%
  Preference (%) test composition: 84.0%
  Status (vs. control): Win
[2]; [5]
  Intake Ratio: 0.8206
  Preference (%) control composition: 13.6%
  Preference (%) test composition: 86.4%
  Status (vs. control): Win
[2]; [6]
  Intake Ratio: 0.8957
  Preference (%) control composition: 4.2%
  Preference (%) test composition: 95.7%
  Status (vs. control): Win
[2]; [7]
  Intake Ratio: 0.8596
  Preference (%) control composition: 12.5%
  Preference (%) test composition: 87.5%
  Status (vs. control): Win
[2]; [8]
  Intake Ratio: 0.7976
  Preference (%) control composition: 15.0%
  Preference (%) test composition: 85.0%
  Status (vs. control): Win

— US20050142169A1, “Palatability enhanced composition and method for animal consumption” (priority 2003, published 2005)
